Key:
[1] = tested on: HepG2 cells; test: RT-qPCR of MAPK signaling pathway genes; assay type: cell-based, human; conditions: BCP-treated HepG2 cells vs control cells
Protocol: HepG2 cells were treated by 150 µM BCP or ethanol for 24 h, followed by total RNA extraction using the TRIzol reagent (Thermo Fisher Scientific, cat#15596026). The quality and concentration of RNA were examined by MOPS RNA electrophoresis and Eppendorf BioSpectrometer. The transcriptome analysis was performed by BGI-Wuhan China. The RNA-seq dataset of this study is accessible in the Gene Expression Omnibus (GEO) with an access number of GSE276099. The sequence library for each sample was prepared using the BGISEQ-500 platform with a 50-bp single-end (SE50) format. HISAT (v2.2.1) was used to align the clean reads to the reference genome and alignment of the clean reads to the reference genes was carried out using Bowtie2 (v2.4.5) ([Langmead and Salzberg, 2012]; [Kim et al., 2015]). Gene expression levels were calculated by RSEM (v1.3.1) ([Li and Dewey, 2011]). Analysis of differential gene expression was performed using edgeR in the Bioconductor software package ([Robinson et al., 2010]). Using a standard protocol, the RNA samples were also examined by reverse transcription and quantitative polymerase chain reaction (RT-qPCR). In brief, for reverse transcription, total RNA (1 μg) and gDNA wiper Mix were incubated at 42°C for 2 min. The samples were immediately incubated with a master mix containing 10 pmol/μL of poly (dT) primers at 37°C for 15 min and 85°C for 5 s. […]

[2] = tested on: HepG2 cells; test: Transwell migration assay; assay type: cell-based; conditions: Homo sapiens, 48 h, vs ethanol control, read-out: inhibition of cell migration
Protocol: (§1) The transwell migration and invasion experiments were conducted using a 24-well plate (cat# 3422, Corning). HepG2 and SMMC-7721 cells (5 × 10^4) were suspended in 100 µL of medium supplied with ethanol, 150 and 300 µM of BCP and added to the top chamber, while 600 µL of complete medium containing 10% FBS was added into the lower chamber. After 48 h of incubation at 37°C, the cells from the top chamber were carefully removed using a cotton swab, while the cells penetrated through the membrane were fixed using 600 µL of 70% methanol for 15 min. To stain the cells, 600 µL of 0.2% crystal violet was used to treat the Transwell inserts for 10 min, followed by washing and drying, and the membranes of the inserts were photographed using an inverted microscope (Leica DM13000 B). The positive staining area was calculated using ImageJ software.

[3] = tested on: HepG2 cells; test: CCK8 viability of cells infected by pSL4-Flag vector or pSL4-Flag-PGF lentivirus; assay type: cell-based; conditions: Homo sapiens, HepG2, 48 h
Protocol: (§2) Cell viability assay using the CCK8 reagent (Bimake, Shanghai, China) was conducted according to the manufacturer’s instructions. The cell proliferation data were used to calculate the cell viability. Briefly, HepG2, SMMC-7721, and HL-7702 cells with a density of 5 × 10^3 cells/well were seeded into each well of 96-well plates and incubated overnight. […] After 48 h, 10 µL of CCK8 reagent was added to each well, followed by 2 h incubation at 37°C and measurement of absorbance at 450 nm using a microplate reader (Molecular Devices, LLC.). The cell viability percentage of all compounds or their combinations at certain concentrations during the treatment period was evaluated by normalizing absorbance at 450 nm to that of vehicle controls. The half maximal inhibitory concentrations (IC50) values were calculated using the GraphPad Prism 8 software.
(§3) The placental growth factor (PGF) coding sequence was amplified using gene specific primers and then subcloned into a lentiviral vector pSL4-Flag expressing the puromycin resistance gene to generate pSL4-Flag-PGF vector with a CMV promoter driving PGF expression. The primers used to amplify the PGF coding sequence, check the amplified DNA fragment and verify its ectopic expression are listed in Supplementary Table S1. Lentiviruses carrying pSL4-Flag-PGF and an empty pSL4-Flag vector were produced and used to infect HCC cells based on our previously reported procedure ([Wan et al., 2012]). Ectopic PGF expression was achieved by infecting HCC cells with pSL4-Flag-PGF lentivirus, and the control cells were produced by infecting HCC cells using lentivirus carrying the empty pSL4-Flag-vector.

[4] = tested on: SMMC-7721 cells; test: as above; assay type: cell-based; conditions: Homo sapiens
Protocol: as §2, §3

[5] = tested on: HepG2 cells; test: Matrigel transwell invasion assay; assay type: cell-based, human; conditions: 48 h, vs control
Protocol: as §1
(§4) For invasion assay, Matrigel (Corning, cat# 356234) was used to precoat the top chamber. Cells (8 × 10^4) were added to the top chamber and the following procedure was the same as the migration assay described above.

[6] = tested on: SMMC-7721 cells; test: Matrigel transwell invasion assay; assay type: cell-based, human; conditions: 48 h, vs control
Protocol: as §1, §4

[7] = tested on: SMMC-7721 cells; test: CCK8 cell viability assay; assay type: cell-based, human; conditions: Homo sapiens; SMMC-7721, 48 h, individual treatment; read-out: IC50 (half maximal inhibitory concentration)
Protocol: (§5) Cell viability assay using the CCK8 reagent (Bimake, Shanghai, China) was conducted according to the manufacturer’s instructions. The cell proliferation data were used to calculate the cell viability. Briefly, HepG2, SMMC-7721, and HL-7702 cells with a density of 5 × 10^3 cells/well were seeded into each well of 96-well plates and incubated overnight. […] After 48 h, 10 µL of CCK8 reagent was added to each well, followed by 2 h incubation at 37°C and measurement of absorbance at 450 nm using a microplate reader (Molecular Devices, LLC.). […] The effects of the combinatorial inhibition were visualized by isobologram analyses ([Tallarida, 2001]). […] A line was drawn to link the two IC50 points. […] The dots above, on, or below the line indicate the “antagonistic,” “additive” and “synergistic” effects, respectively. The same method was used to obtain the CI value for the cotreatment of BCP and DDP.

[8] = tested on: HL-7702 normal liver cells; test: CCK8 cell viability assay; assay type: cell-based, human; conditions: Homo sapiens, L02; HL-7702, 48 h, individual treatment; read-out: IC50 (half maximal inhibitory concentration)
Protocol: as §5

[9] = tested on: SMMC-7721 cells; test: Transwell migration assay; assay type: cell-based, human; conditions: 48 h, vs ethanol control
Protocol: as §1

C=C1CC/C=C(\C)CC[C@@H]2[C@@H]1CC2(C)C [BCP, β-caryophyllene]
RT-qPCR verification of differential expression of NR4A1, CSF1R, PGF, ARTN, CACNA1E [1]: confirmed
inhibition at 150 µM ([2]; HepG2, 150 µM): 49%
inhibition at 300 µM ([2]; HepG2, 300 µM): 75.6%
IC50 ([3]; HepG2 cells carrying empty vector): 178 µM
IC50 ([3]; HepG2 cells expressing Flag-PGF): 284 µM
IC50 ([4]; SMMC-7721, SMMC-7721 cells carrying empty vector): 318 µM
IC50 ([4]; SMMC-7721, SMMC-7721 cells expressing Flag-PGF): 405 µM
decrease of Matrigel infiltration (invasion) ([5]; HepG2, 150 µM): 46.3%
decrease of Matrigel infiltration (invasion) ([5]; HepG2, 300 µM): 70.03%
decrease of Matrigel infiltration (invasion) ([6]; SMMC-7721, 150 µM): 17.67%
decrease of Matrigel infiltration (invasion) ([6]; SMMC-7721, 300 µM): 49.64%
IC50 [7]: 334.5 ± 2.96 µM
IC50 [8]: 610.9 ± 2.72 µM
reduction of cell migration ([9]; SMMC-7721, 150 µM): 18.06%
reduction of cell migration ([9]; SMMC-7721, 300 µM): 52.19%

Source: paper PMC11671526, “β-caryophyllene sensitizes hepatocellular carcinoma cells to chemotherapeutics and inhibits cell malignancy through targeting MAPK signaling pathway” (Frontiers in Pharmacology, 2024)
